Reference: the NIST ThermoML archive (doi:10.1021/je700755t)

Tests used:
[1] = 101 kPa, Liquid; for viscosity: Capillary tube (Ostwald / Ubbelohde) method
[2] = xn = mol fraction of the nth substance listed; details: 101 kPa, Liquid, x2 = 0; for viscosity: Capillary tube (Ostwald / Ubbelohde) method

CC(=O)O [acetic acid]
[1]
Details | mass density [kg/m3] | viscosity [mPa·s]
303.15 K | 1038.66 | 1.059
313.15 K | 1027.37 | 0.92
323.15 K | 1016.08 | 0.804
333.15 K | 1005.04 | 0.709
343.15 K | 993.69 | 0.632
353.15 K | 982.95 | 0.57

CN(C)C=O [dimethylformamide]
[1]
Details | mass density [kg/m3] | viscosity [mPa·s]
303.15 K | 939.45 | 0.76
313.15 K | 929.86 | 0.675
323.15 K | 920.92 | 0.608
333.15 K | 910.64 | 0.552
343.15 K | 901.72 | 0.502
353.15 K | 891.44 | 0.46

CN(C)C=O [dimethylformamide] + CC(=O)O
[2]
Details | mass density [kg/m3] | viscosity [mPa·s]
303.15 K | 939.45 | 0.76
313.15 K | 929.86 | 0.675
323.15 K | 920.92 | 0.608
333.15 K | 910.64 | 0.552
343.15 K | 901.72 | 0.502
353.15 K | 891.44 | 0.46

CN(C)C=O [dimethylformamide] + O=CO
[2]
Details | mass density [kg/m3] | viscosity [mPa·s]
303.15 K | 939.45 | 0.76
313.15 K | 929.86 | 0.675
323.15 K | 920.92 | 0.608
333.15 K | 910.64 | 0.552
343.15 K | 901.72 | 0.502
353.15 K | 891.44 | 0.46

O=CO [formic acid]
[1]
Details | mass density [kg/m3] | viscosity [mPa·s]
303.15 K | 1205.07 | 1.437
313.15 K | 1192.81 | 1.205
323.15 K | 1180.63 | 1.022
333.15 K | 1167.44 | 0.879
343.15 K | 1154.99 | 0.766
353.15 K | 1142.08 | 0.677
